In patent US6620844B2, “Method for reducing blood insulin levels by reducing in vivo cathepsin L activity” (NewMillennium Pharmaceutical, Inc., priority 2001, dated 2003):
Each block holds one molecule with its values, some of them ahead of it. Non-standard residues stand in square brackets, D forms with d. Residues, ends and D or L forms follow the SMILES beside them. *: point of attachment. Cbz = O=C(OCc1ccccc1)*

Experiments:
Cathepsin L [1] = molecular target: Cathepsin L (Homo sapiens, UniProt P07711); details: cited from earlier work
Sequence of Cathepsin L (P07711 114-333, species assumed): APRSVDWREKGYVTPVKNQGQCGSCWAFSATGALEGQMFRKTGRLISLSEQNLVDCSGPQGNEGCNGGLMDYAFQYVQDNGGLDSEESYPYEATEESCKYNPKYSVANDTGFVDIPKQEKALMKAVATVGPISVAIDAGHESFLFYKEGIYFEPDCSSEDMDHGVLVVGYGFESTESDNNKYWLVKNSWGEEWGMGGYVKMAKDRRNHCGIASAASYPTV

cathepsin L [2] = molecular target: T1, cathepsin L (Mus musculus, UniProt P06797); assay: Cysteine protease active site labeling in mouse peritoneal macrophages: cathepsin L; assay type: cell-based
T1 construct: endogenous in cells; host or cells: thioglycolate-elicited mouse peritoneal macrophages
T1 sequence (P06797 114-334): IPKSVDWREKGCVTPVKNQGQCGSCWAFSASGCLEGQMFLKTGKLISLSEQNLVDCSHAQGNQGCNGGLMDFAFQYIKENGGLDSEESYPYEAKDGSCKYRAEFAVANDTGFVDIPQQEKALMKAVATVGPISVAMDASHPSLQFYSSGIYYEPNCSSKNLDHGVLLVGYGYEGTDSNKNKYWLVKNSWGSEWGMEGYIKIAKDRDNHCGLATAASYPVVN
Experimental: (§1) FIG. 1. Cysteine protease inhibition profile by synthetic inhibitors in mouse peritoneal macrophages. [^125I]-Z-Tyr-Ala-CHN2-labeled mouse peritoneal macrophages were lysed and separated onto 12% SDS-PAGE to visualize labeled active cathepsins. Doses and inhibitors used were all indicated.
(§2) Mouse peritoneal macrophages were generated by injecting mice with thioglycolate as described in Shi et al. (2000) J. Exp. Med. 191:[…]. After 3-4 days of incubation, peritoneal microphages were washed out using Tris-EDTA buffers containing 6 mM EDTA (pH 8.0). Cells were then seeded onto 24-well plates in DMEM with 10% FBS till complete spread. After cells were attached to the plates, different doses of inhibitors were added. After 2-3 hours of incubation, cells were labeled with [^125I]-Z-Tyr-Ala-CHN2 overnight at 37° C. to detect intracellular active cysteine proteases. Cells were lysed into 1× reducing protein sample buffer and separated onto 12% SDS-PAGE.
(§3) First, the synthetic small molecule compounds were tested for their selectivity toward different forms of cathepsin. Mouse peritoneal macrophages were cultured in the presence of selective inhibitors and cysteine protease active site labeling probe [^125I]-Z-Tyr-Ala-CHN2 (Sukhova et al., supra). […] In contrast, other inhibitors used had no effect on cathepsin B activity. […] Therefore, these inhibitors can be utilized to test if the aforementioned cathepsins play roles in the breakdown of insulin receptor (IR) or IR turnover.

cathepsin S [3] = molecular target: cathepsin S (Mus musculus, UniProt O70370); assay: Cysteine protease active site labeling in mouse peritoneal macrophages: cathepsin S; assay type: cell-based; parameters: endogenous in cells; host or cells: thioglycolate-elicited mouse peritoneal macrophages; details: 2-10 μM
Experimental: as §1, §2
First, the synthetic small molecule compounds were tested for their selectivity toward different forms of cathepsin. Mouse peritoneal macrophages were cultured in the presence of selective inhibitors and cysteine protease active site labeling probe [^125I]-Z-Tyr-Ala-CHN2 (Sukhova et al., supra). […] In contrast, other inhibitors used had no effect on cathepsin B activity. […]

human preadipocytes = assay: Human preadipocyte adipogenesis, oil-red staining; assay type: cell-based; details: for effect on adipogenesis / inhibition of adipogenesis / differentiation: human preadipocytes; for inhibition of adipogenesis / differentiation: 10 μM
Experimental: FIG. 6. Oil-red staining of human preadipocytes and adipocytes.
(§4) Human preadipocytes were initially cultured in MSCGM medium (BioWhitaker) at 37° C. and 5% CO2 for 7 to 12 days with 3-4 changes of media till complete confluence. Non-induced cells were kept in adipogenesis maintenance media containing 0.01 mg/ml of insulin, 0.05 units/ml of penicillin, 0.05 μg/ml of streptomycin, and 10% fetal bovine serum. To induce adipogenesis, complete confluent cells were cultured in adipogenesis induction medium containing 1 μM dexamethasone, 0.2 mM indomethacin, 0.01 mg/ml insulin, 0.5 mM 3-isobutyl-1-methyl-xanthine, 0.05 units/ml of penicillin, 0.05 μg/ml of streptomycin, and 10% fetal bovine serum in the presence and absence of protease inhibitors for 3 days followed by three days of culture in maintenance media. After three cycles of induction and maintenance, cells were cultured in maintenance media for additional 7 days with two changes of fresh media.
This hypothesis is further confirmed by oil-red staining of CLIK 148 or 195 treated preadipocytes (FIG. 6). In addition, inhibition of adiogenesis by these two inhibitors is dose dependent. Less than 50% of adipogenesis was blocked by 1 μM of such inhibitors. […] In contrast, 1 μM of CLIK 060, 1 or 10 μM of CA 074 had no effect on adipogenesis (data not shown). Therefore, these observations indicate that cathepsin L appears to play a more critical role than cathepsins S and K in adipogenesis by controlling insulin/IR complex turnover.

[4] = system: insulin receptor β subunit; assay: Insulin receptor turnover in human preadipocytes, Western blot; assay type: cell-based
Experimental: FIG. 2. […] Human preadipocytes were incubated with and without inhibitors indicated at different doses, lysed, separated onto 7% SDS-PAGE, and probed with goat anti-human insulin receptor β-subunit polyclonal antibodies. Both mature β subunit and its precursor were indicated.
as §4
(§5) After differentiation, cells were collected, and lysed into 1×RIPA buffer. Protein concentrations were determined using Bio-Rad Dc protein assay system according to the manufacturer (Bio-Rad, Hercules, Calif.). Equal amount of proteins were separated on 7% SDS-PAGE for detecting IR and IGF-1R, 12% SDS-PAGE for detecting cathepsins S, K, and L antigens. Both IR and IGF-1R primary polyclonal antibodies were raised from goat and all cathepsin antibodies were polyclonal antibodies raised from rabbit. The corresponding HRP-conjugated secondary antibodies were used for detections.
To test which cathepsin is involved in the IR turnover, human preadipocytes (BioWhittaker, Walkersville, Md.) were induced to become adipocytes in the presence and absence of inhibitors. Differentiated adipocytes expressed more IR than controls as previously reported. Pederson et al. (2000) Biochem. Biophys. Res. Commun. 276:162-168. Cathepsin B inhibitor (CA 074, 10 μM) and catepsin S inhibitor (CLIK 060, 2 μM) had no effect on either IR turnover or differentiation (FIGS. 2). […] The same is true when the blot was tested with insulin like growth factor I receptor (IGF-IR) antibodies (FIG. 3).

Cathepsin S [5] = molecular target: Cathepsin S (Homo sapiens, UniProt P25774); details: at 1 × 10^−6 M; cited from earlier work
Sequence of Cathepsin S (P25774 115-331, species assumed): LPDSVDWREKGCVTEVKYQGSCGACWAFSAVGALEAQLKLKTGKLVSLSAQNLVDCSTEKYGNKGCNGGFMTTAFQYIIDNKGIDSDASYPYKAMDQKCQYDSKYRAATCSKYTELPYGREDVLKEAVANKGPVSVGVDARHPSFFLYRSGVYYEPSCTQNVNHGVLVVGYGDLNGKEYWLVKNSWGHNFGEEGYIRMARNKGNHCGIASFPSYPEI

Cathepsin K [6] = molecular target: T2, Cathepsin K (Homo sapiens, UniProt P43235); details: cited from earlier work
T2 sequence (P43235 115-329): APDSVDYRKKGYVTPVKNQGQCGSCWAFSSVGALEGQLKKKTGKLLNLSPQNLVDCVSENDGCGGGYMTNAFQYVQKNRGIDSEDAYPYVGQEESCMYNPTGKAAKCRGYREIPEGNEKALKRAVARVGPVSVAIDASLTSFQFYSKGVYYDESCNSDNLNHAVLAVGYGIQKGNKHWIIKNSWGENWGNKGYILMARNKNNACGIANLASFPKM

Cathepsin C = Cathepsin C (Homo sapiens, UniProt P53634); details: at 1 × 10^−6 M; cited from earlier work
Sequence of Cathepsin C (P53634 25-463, species assumed): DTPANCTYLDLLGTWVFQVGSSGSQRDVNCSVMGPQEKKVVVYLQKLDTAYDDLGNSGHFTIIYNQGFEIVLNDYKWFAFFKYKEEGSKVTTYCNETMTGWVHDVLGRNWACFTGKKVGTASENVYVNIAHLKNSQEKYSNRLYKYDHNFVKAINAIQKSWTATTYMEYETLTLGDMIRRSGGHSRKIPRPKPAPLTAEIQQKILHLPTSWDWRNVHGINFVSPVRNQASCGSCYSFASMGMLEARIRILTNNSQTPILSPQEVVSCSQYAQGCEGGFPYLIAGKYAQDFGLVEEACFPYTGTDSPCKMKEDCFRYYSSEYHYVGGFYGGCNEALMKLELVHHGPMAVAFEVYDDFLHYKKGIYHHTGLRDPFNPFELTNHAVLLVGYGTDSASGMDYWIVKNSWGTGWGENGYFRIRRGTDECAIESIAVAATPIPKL

Cathepsin B [7] = molecular target: Cathepsin B (Homo sapiens, UniProt P07858); details: cited from earlier work
[8] = system: insulin like growth factor I receptor (IGF-IR); assay: IGF-IR levels in human preadipocytes, Western blot; assay type: cell-based; details: 10 μM
Experimental: FIG. 3. […] Cells were treated as in FIG. 2. Western blot analysis was performed using goat anti-human IGF-1R polyclonal antibodies.
as §4, §5
To test which cathepsin is involved in the IR turnover, human preadipocytes (BioWhittaker, Walkersville, Md.) were induced to become adipocytes in the presence and absence of inhibitors. Differentiated adipocytes expressed more IR than controls as previously reported. Pederson et al. (2000) Biochem. Biophys. Res. Commun. 276:162-168. Cathepsin B inhibitor (CA 074, 10 μM) and catepsin S inhibitor (CLIK 060, 2 μM) had no effect on either IR turnover or differentiation (FIGS. 2). […]

cathepsin B [9] = molecular target: T3, cathepsin B (Mus musculus, UniProt P10605); assay: Cysteine protease active site labeling in mouse peritoneal macrophages: cathepsin B; assay type: cell-based; details: 10 μM
T3 construct: endogenous in cells; host or cells: thioglycolate-elicited mouse peritoneal macrophages
T3 sequence (P10605 80-333 limits assumed): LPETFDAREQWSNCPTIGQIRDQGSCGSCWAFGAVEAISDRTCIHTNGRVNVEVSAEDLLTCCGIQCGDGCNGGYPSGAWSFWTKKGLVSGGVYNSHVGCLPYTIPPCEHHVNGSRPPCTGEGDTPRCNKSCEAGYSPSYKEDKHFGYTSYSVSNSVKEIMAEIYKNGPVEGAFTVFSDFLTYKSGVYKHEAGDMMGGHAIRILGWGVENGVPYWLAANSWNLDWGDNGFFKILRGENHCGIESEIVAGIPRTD
Experimental: as §1, §2, §3

cathepsin K [10] = molecular target: T4, cathepsin K (Mus musculus, UniProt P55097); assay: Cysteine protease active site labeling in mouse peritoneal macrophages: cathepsin K; assay type: cell-based; details: 10 μM
T4 construct: endogenous in cells; host or cells: thioglycolate-elicited mouse peritoneal macrophages
T4 sequence (P55097 115-329): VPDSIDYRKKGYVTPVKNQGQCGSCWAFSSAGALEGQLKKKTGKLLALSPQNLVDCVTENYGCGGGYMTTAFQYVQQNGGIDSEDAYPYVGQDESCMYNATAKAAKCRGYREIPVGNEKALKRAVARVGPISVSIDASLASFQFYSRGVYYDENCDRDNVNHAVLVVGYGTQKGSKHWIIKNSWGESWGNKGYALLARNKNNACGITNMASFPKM
Experimental: as §1, §2, §3

[11] = system: peroxisome proliferator-activated receptor-γ (PPAR-γ); assay: PPAR-γ levels in human preadipocytes, Western blot; assay type: cell-based; details: human preadipocytes differentiated with inhibitor, FIG. 5
Experimental: FIG. 5. Inhibition of cathepsin L blocked the expression of PPAR-γ. Human preadipocytes were used and Western blot analysis was performed as in FIG. 4 instead of using mouse anti-human PPAR-γ monoclonal antibodies as the primary antibodies.
as §4
(§6) To evaluate the cell differentiation levels affected by aforementioned inhibitors, the levels of transcription factors CCAAT/enhancer-binding protein-α (C/EBP-α) as well as peroxisome proliferator-activated receptor-γ (PPAR-γ) from cells treated with and without inhibitors were measured. Both C/EBP-α and PPAR-γ are important adipocyte determination factors. Wu et al. (1999) Mol. Cell. 3:151-158; Tanaka et al. (1997) EMBO J. 16:7432-7443; and Tontonoz et al. (1994) Cell 79:1147-1156.

[12] = system: CCAAT/enhancer-binding protein-α (C/EBP-α); assay: C/EBP-α levels in human preadipocytes, Western blot; assay type: cell-based; details: human preadipocytes differentiated with inhibitor, FIG. 4
Experimental: FIG. 4. Inhibition of cathepsin L blocked the expression of CCAAT/enhancer-binding protein. Human preadipocytes were differentiated as in FIG. 2. A 10% gel was used to perform Western blot analysis using goat anti-human C/EBP-α polyclonal antibodies and the blot was detected using the corresponding HRP-conjugated secondary antibodies.
as §4, §6

SMILES: O=C[C@@H](Cc1ccc(O)cc1)NC(=O)[C@H](Cc1ccccc1)NC(=O)OCc1ccccc1 (Cbz-Phe-[dY]-aldehyde)
- Cathepsin L selectivity, in words (Cathepsin L [1]): Cathepsin L. Selective (Woo et al. Bioorg. Med. Chem. 5, 1501, 1995)

- cathepsin L activity (active site labeling) (cathepsin L [2]; 2-10 μM, mouse peritoneal macrophages): affected at some level
- cathepsin L activity (active site labeling) (cathepsin L [2]; 10-15 μM, FIG. 1): blocked
- cathepsin S activity (active site labeling) (cathepsin S [3]): significantly inhibited
SMILES: CN(C)C(=O)[C@H](Cc1ccccc1)NC(=O)C1OC1C(=O)NC(CCCCN)C(=O)Nc1ccccc1.Cl (stereo in doubt) [CLIK 060, N-{L-3-trans[(1-phenylcarbamoyl-5-amino)pentylcarbamoyl]oxirane-2-carbonyl}-L-phenylalaninoldimethylamide hydrochloride]
- effect on adipogenesis (human preadipocytes; 1 μM): no effect
- differentiation of human preadipocytes (human preadipocytes; 2 μM): no effect
- effect on adipogenesis (human preadipocytes; 10-15 μM (higher concentrations)): adipogenesis inhibition
- IR turnover ([4]; 2 μM, human preadipocytes induced to adipocytes): no effect
- IR accumulation ([4]; 10-15 μM, human preadipocytes): IR accumulation

SMILES: CN(C)C(=O)[C@H](Cc1ccccc1)NC(=O)C1O[C@@H]1C(=O)NCCc1ccccn1 (stereo partly drawn)
- % of Inhibition, Cathepsin S (Cathepsin S [5]): 30%
- % of Inhibition, Cathepsin K (Cathepsin K [6]; at 1 × 10^−6 M): 0%
- % of Inhibition, Cathepsin C (Cathepsin C): 0%
- % of Inhibition, Cathepsin B (Cathepsin B [7]; at 1 × 10^−6 M): 0%
- % of Inhibition, Cathepsin L (Cathepsin L [1]; at 1 × 10^−6 M): 100%

SMILES: O=C(N[C@@H](Cc1ccc2ccccc2c1)C(=O)N[C@H]1CCCN(S(=O)(=O)c2ccccn2)CC1=O)c1cccc2ccccc12
- Ki (Cathepsin K [6]): 0.42 to 0.503 µM

- cathepsin L activity (active site labeling) (cathepsin L [2]; 10 μM, mouse peritoneal macrophages): completely inhibited
- cathepsin B activity (active site labeling) (cathepsin B [9]): not
- cathepsin K activity (active site labeling) (cathepsin K [10]): not
SMILES: CN(C)C(=O)[C@H](Cc1ccccc1)NC(=O)[C@H]1O[C@@H]1C(=O)N[C@@H](Cc1ccccc1)C(=O)N(C)C (relative stereo) [CLIK 195, L-(+)-(2S, 3S)-Bis-(Na-amino-L-phenylalaninedimethylamide)-trans-epoxysuccinamide]
- levels of IGF-IR β subunit and its precursor (the same as for IR) [8]: increased levels
- accumulation of 50 kDa PPAR-γ [11]: blocking the accumulation
- inhibition of adipogenesis / differentiation (human preadipocytes): complete inhibition
- inhibition of adipogenesis / differentiation (human preadipocytes; listed as 195): completely blocked
- accumulation of 50 kDa C/EBP-α [12]: blocking the accumulation
- levels of 95 kDa IR β subunit and its precursor ([4]; 10 μM, human preadipocytes): increased levels

SMILES: CC(C)CC(NC(=O)[C@H](CC(C)C)NC(=O)OCc1ccccc1)C(=O)COCc1ccc(-c2ccccc2)cc1 (stereo partly drawn)
- Ki (Cathepsin K [6]): 0.022 µM
- Ki (Cathepsin B [7]): 1.31 µM
- Ki (Cathepsin L [1]): 0.063 µM

SMILES: CC(C)C[C@H](NC(=O)[C@H](CC(C)C)NC(=O)OCc1ccccc1)C(=O)COCc1ccc(-c2ccccc2)cc1
- Ki (Cathepsin K [6]): 0.022 µM
- Ki (Cathepsin B [7]): 1.31 µM
- Ki (Cathepsin L [1]): 0.063 µM
